Assay results reported in patent US10202372B2, “Trisubstituted pyrido[2,3-D]pyrimidines, methods for preparing same and therapeutic uses thereof” (CENTRE NATIONAL DE LA RECHERCHE SCIENTIFIQUE (C.N.R.S), priority 2012, dated 2019).
Structures can show the parent of a compound that is named as a salt.

How the values were obtained:
[1] = system: HacaT; assay: Toxicity test on cells, HacaT; type: cell-based; conditions: Homo sapiens, 48 hours of treatment, Hoechst nuclei staining
Experimental: (§1) The compounds according to the invention were also tested on the cell lines HuH7, CaCo-2, HCT116, PC3, NCl, HacaT and Fibroblasts.
(§2) Operating Procedure: The cells were cultivated according to the ECACC recommendations. The toxicity test of the compounds on these cells was conducted as follows: 4×10^3 cells/well were sown in 96 wells. 24 hours after sowing the cells, the cells were exposed to increased concentrations of the compounds (0.1 μM-0.3 μM-0.9 μM-2.7 μM-8.3 μM-25 μM). After 48 hours of treatment, the cells were washed in PBS and bound in a cold ethanol/acetic acid (90/5) mixture for 20 minutes. Next, the nuclei were coloured with […] (Sigma). The acquisition of images and the analysis was carried out by means of a reader Cellomics ArrayScan VTI/HCS (Thermo Scientific).

[2] = biological target: mTOR (Homo sapiens, UniProt P42345); assay: mTOR kinase activity, LANCE Ultra TR-FRET; type: biochemical; conditions: truncated mTOR protein, triplicate; read-out: Kinases IC50 mTOR
Experimental: The activity of the mTOR kinase was evaluated by using a purified truncated protein of the amino acids 1-1359 (reference: PV4753 from Invitrogen). The assay of the activity of the enzyme was carried out with the kit LANCE® Ultra which is an enzymatic test based on the detection of a phosphorylated peptide produced during the reaction, by using the fluorescence technique TR-FRET. It took place in a 384-well plate and was able to be divided into two phases: an enzymatic reaction phase and a phase for detecting the phosphorylated peptide.
During the enzymatic reaction phase, the following components were mixed in 10 μL of a same well: 5 μL of each dilution in series of inhibitors taken up in DMSO and then diluted to 1/25 in the reaction buffer (50 mM HEPES pH 7.5, 0.1% Tween-20, 1 mM EGTA, 10 mM MnCl2, 3 mM MgCl2 and 2 mM of DTT), 2.5 μL of a solution containing mTOR at the optimum concentration (concentration defined according to the optimization step described in the operating procedure of the kit) diluted in the same reaction buffer, and finally 2.5 μL of a solution containing 40 μM of ATP and 200 μM non-phosphorylated peptide diluted in the reaction buffer. For each inhibitor concentration, the reaction was conducted in three copies (triplicate). The reaction was then incubated for 120 min at room temperature without any stirring in darkness.
During the phase for detecting the phosphorylated peptide, 5 μL of an EDTA solution (32 mM) diluted in the dilution buffer (ref.: CR97-100 from Perkin Elmer) were injected into each well. After 5 min of incubation with stirring, 5 μL of a phosphorylated anti-peptide antibody solution labeled with europium (8 nM) and diluted in the same dilution buffer was added into each well. After 60 min of incubation at room temperature with stirring (40 rpm) in darkness, the 384-well plates were read in a plate reader Victor V configured for HTRF (Perkin Elmer). […] The inhibition curve was then plotted according to the fluorescence intensity value at 665 nm versus the inhibitor concentration.
The amount of inhibitor required for causing a 50% variation in the intensity of the signal corresponds to the IC50 value of the inhibitor.

[3] = system: HCT116; assay: Toxicity test on cells, HCT116; type: cell-based; conditions: Homo sapiens, HCT-116; 48 hours of treatment, Hoechst nuclei staining
Experimental: as §1, §2

[4] = biological target: PI3Kδ (Homo sapiens, UniProt O00329); assay: PI3Kδ kinase activity, Adapta TR-FRET ADP detection; type: biochemical; conditions: purified p110δ/p85α heterodimer; read-out: Kinases IC50 PI3Kδ
Experimental: (§3) The activity of the PI3Kα kinase was evaluated by using a purified heterodimer (reference: PV4788 from Invitrogen) consisting of the α catalytic p110 subunit (PIK3CA) and the α regulation p85 subunit (PIK3R1). The assay of the kinase with the kit Adapta™ (reference: PV5099 from Invitrogen) is an enzymatic test based on the detection of ADP, produced during the reaction, by the fluorescence technique TR-FRET. It took place in a 384-well plate and was able to be divided into two phases: an enzymatic reaction phase, and a phase for detecting the ADP level.
(§4) During the enzymatic reaction phase, the following components were mixed in 10 μL of a same well: 2.5 μL of each dilution in series of inhibitors taken up in DMSO and then diluted to 1/25 in the reaction buffer (250 mM HEPES pH 7.5, 500 mM NaCl, 0.15 CHAPS, 5 mM EGTA, 15 mM MgCl2 and 1 mM DTT, ref.: PV5101 from Invitrogen), 2.5 μL of a solution containing PI3K at the optimum concentration (concentration defined according to the optimization step described in the operating procedure of the kit) diluted in the same reaction buffer, and finally, 5 μL of a solution containing 20 μM ATP and 100 μM PIP2 diluted in the reaction buffer. For each inhibitor concentration, the reaction was conducted in three copies (triplicate). The reaction was then incubated for 60 min at room temperature without any stirring in darkness.
(§5) During the phase for detecting ADP, 5 μL of a detection solution containing an anti-ADP antibody labeled with europium (6 nM), a tracer of the Alexa Fluor® 647 type coupled with ADP (30 nM), and EDTA (30 mM, for stopping the kinase reaction) were diluted in the dilution buffer (reference: PV3574 from Invitrogen). After 30 min of incubation at room temperature with stirring (40 rpm) in darkness, the 384-well plates were read in a plate reader Victor V configured for HTRF (Perkin Elmer). The excitation was produced at 340 nm and emission was measured at 665 nm and 615 nm. The inhibition curve was then plotted according to the emission ratio at 665 nm/615 nm versus the inhibitor concentration.
(§6) In order to obtain a linear response of the signal, a titration curve ATP-ADP, corresponding to the conversion % of ATP into ADP, was achieved by varying both of these species while keeping [ADP]+[ATP]=10 μM. The emission ratio at 665 nm/615 nm resulting from this (Y) was plotted versus the conversion % of ATP into ADP (X). The data of this curve were formatted according to a model with three hyperbolic parameters from the following equation: Y=C+A*(1−(X/(B+X))).
(§7) The software package GraphPad™ Prism® thus allows calculation of the parameters A, B and C. A conversion % corresponds to an emission ratio 665 nm/615 nm, this percentage is calculated by using the following equation: Conversion %=B*(C+A−Ratio)/(Ratio−C)
(§8) The three parameters A, B and C having been defined by the preceding equation, the conversion % was therefore able to be plotted versus the inhibitor concentration. The amount of inhibitor required for causing a 50% variation in the % conversion of ATP into ADP corresponds to the IC50 value of the inhibitor.
(§9) The activity of the kinase PI3Kγγ (PV4786 from Invitrogen) was evaluated on the p110γγ catalytic subunit (PI3KCG) and that of the kinase PI3Kδδ on the purified heterodimer (PV5273) respectively consisting of the δδ catalytic p110 subunit (PIK3CD) and the α regulation p85 subunit (PIK3R1) by following the same procedure.

[5] = biological target: PI3Kγ (Homo sapiens, UniProt P48736); assay: PI3Kγ kinase activity, Adapta TR-FRET ADP detection; type: biochemical; conditions: p110γ catalytic subunit; read-out: Kinases IC50 PI3Kγ
Experimental: as §3, §4, §5, §6, §7, §8, §9

[6] = system: NCl; assay: Toxicity test on cells, NCl; type: cell-based; conditions: 48 hours of treatment, Hoechst nuclei staining
Experimental: as §1, §2

[7] = system: CaCo2; assay: Toxicity test on cells, CaCo2; type: cell-based; conditions: Homo sapiens, Caco-2; 48 hours of treatment, Hoechst nuclei staining
Experimental: as §1, §2

[8] = system: MDA; assay: Toxicity test on cells, MDA; type: cell-based; conditions: 48 hours of treatment, Hoechst nuclei staining
Experimental: [The procedure below names another cell line; the source lists this cell line under the same test.] as §1, §2

[9] = system: PC3; assay: Toxicity test on cells, PC3; type: cell-based; conditions: Homo sapiens, PC-3; 48 hours of treatment, Hoechst nuclei staining
Experimental: as §1, §2

[10] = system: Fibroblasts; assay: Toxicity test on cells, Fibroblasts; type: cell-based; conditions: Fibroblast; 48 hours of treatment, Hoechst nuclei staining
Experimental: as §1, §2

[11] = system: HUH7; assay: Toxicity test on cells, HUH7; type: cell-based; conditions: Homo sapiens, Huh-7; 48 hours of treatment, Hoechst nuclei staining
Experimental: as §1, §2

[12] = biological target: PI3Kα (Homo sapiens, UniProt P42336); assay: PI3Kα kinase activity, Adapta TR-FRET ADP detection; type: biochemical; conditions: purified p110α/p85α heterodimer, triplicate; read-out: Kinases IC50 PI3Kα
Experimental: as §3, §4, §5, §6, §7, §8

mTOR, sequence (P42345 1360-2549): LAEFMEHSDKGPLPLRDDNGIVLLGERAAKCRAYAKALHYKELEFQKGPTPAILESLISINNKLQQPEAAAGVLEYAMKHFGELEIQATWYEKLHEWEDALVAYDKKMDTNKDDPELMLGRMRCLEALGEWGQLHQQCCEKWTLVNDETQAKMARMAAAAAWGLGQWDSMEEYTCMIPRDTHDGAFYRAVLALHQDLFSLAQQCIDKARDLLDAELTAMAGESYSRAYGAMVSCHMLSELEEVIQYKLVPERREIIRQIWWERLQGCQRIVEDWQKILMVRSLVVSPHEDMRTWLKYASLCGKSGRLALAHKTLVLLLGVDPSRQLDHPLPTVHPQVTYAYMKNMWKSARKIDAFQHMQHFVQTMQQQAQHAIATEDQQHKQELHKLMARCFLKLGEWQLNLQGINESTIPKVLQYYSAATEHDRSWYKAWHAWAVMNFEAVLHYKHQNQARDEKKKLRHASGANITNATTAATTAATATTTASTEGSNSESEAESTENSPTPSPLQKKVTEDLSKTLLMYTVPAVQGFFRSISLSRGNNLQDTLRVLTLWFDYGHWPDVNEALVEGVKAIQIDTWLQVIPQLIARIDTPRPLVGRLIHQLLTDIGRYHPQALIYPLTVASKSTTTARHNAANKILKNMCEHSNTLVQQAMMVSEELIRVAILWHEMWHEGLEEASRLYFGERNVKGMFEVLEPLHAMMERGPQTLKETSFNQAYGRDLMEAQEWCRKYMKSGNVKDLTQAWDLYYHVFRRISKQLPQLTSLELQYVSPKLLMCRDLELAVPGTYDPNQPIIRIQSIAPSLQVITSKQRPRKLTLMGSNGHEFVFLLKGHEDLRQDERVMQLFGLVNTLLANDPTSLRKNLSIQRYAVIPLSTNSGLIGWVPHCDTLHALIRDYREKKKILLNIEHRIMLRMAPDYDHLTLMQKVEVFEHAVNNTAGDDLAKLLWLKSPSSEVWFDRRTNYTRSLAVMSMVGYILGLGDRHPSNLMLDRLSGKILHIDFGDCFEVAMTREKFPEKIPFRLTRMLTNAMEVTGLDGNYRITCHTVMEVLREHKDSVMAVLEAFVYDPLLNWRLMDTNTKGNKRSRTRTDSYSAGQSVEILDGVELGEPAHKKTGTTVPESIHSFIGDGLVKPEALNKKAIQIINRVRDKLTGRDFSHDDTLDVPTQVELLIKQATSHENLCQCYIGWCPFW
PI3Kα, sequence (P42336 whole entry): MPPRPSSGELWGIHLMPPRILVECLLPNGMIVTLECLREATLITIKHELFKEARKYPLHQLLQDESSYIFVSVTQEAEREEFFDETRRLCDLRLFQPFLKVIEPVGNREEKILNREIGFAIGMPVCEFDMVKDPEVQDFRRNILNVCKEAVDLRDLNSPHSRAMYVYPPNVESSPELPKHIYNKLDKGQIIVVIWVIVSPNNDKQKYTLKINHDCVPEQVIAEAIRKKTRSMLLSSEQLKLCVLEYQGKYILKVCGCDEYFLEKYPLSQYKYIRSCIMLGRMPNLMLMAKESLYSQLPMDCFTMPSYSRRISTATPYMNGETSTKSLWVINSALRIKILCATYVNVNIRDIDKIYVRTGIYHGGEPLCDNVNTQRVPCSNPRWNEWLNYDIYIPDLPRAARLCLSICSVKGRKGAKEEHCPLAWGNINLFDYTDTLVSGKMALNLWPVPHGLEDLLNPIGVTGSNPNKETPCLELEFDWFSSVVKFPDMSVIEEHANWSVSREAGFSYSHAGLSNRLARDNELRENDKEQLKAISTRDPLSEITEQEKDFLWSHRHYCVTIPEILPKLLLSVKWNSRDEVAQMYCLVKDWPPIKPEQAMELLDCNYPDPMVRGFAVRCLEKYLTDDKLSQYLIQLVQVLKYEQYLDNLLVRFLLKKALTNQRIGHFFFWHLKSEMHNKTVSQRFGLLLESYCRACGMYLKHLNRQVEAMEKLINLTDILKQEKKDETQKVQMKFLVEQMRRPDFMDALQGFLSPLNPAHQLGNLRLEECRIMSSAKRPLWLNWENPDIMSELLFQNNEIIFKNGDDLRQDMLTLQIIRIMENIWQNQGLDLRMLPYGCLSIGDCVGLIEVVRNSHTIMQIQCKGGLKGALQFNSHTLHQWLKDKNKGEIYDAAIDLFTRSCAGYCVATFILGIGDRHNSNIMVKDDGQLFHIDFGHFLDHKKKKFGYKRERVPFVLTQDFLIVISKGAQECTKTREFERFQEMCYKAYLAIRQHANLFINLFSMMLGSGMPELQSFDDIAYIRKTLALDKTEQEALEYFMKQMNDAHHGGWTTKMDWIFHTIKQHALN
PI3Kα, sequence (P27986 whole entry partner): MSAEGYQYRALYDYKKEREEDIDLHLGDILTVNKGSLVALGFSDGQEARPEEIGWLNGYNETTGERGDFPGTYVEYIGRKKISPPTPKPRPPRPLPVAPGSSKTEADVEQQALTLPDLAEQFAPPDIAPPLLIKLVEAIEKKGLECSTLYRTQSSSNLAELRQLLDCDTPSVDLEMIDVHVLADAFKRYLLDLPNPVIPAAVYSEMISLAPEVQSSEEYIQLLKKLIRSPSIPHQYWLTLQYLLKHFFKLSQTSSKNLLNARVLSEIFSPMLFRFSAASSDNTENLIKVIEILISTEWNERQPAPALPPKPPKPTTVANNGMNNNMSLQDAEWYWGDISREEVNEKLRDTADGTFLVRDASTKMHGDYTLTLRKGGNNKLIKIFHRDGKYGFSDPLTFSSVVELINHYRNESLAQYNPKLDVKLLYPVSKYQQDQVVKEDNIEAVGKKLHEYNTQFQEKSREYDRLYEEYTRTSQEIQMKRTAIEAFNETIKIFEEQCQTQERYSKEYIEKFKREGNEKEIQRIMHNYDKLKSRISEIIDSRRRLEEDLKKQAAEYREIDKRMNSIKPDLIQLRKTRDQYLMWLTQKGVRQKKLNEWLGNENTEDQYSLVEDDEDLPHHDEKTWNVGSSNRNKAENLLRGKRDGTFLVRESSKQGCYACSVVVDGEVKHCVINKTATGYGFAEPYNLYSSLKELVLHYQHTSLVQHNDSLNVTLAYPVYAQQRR
PI3Kδ, sequence (O00329 whole entry): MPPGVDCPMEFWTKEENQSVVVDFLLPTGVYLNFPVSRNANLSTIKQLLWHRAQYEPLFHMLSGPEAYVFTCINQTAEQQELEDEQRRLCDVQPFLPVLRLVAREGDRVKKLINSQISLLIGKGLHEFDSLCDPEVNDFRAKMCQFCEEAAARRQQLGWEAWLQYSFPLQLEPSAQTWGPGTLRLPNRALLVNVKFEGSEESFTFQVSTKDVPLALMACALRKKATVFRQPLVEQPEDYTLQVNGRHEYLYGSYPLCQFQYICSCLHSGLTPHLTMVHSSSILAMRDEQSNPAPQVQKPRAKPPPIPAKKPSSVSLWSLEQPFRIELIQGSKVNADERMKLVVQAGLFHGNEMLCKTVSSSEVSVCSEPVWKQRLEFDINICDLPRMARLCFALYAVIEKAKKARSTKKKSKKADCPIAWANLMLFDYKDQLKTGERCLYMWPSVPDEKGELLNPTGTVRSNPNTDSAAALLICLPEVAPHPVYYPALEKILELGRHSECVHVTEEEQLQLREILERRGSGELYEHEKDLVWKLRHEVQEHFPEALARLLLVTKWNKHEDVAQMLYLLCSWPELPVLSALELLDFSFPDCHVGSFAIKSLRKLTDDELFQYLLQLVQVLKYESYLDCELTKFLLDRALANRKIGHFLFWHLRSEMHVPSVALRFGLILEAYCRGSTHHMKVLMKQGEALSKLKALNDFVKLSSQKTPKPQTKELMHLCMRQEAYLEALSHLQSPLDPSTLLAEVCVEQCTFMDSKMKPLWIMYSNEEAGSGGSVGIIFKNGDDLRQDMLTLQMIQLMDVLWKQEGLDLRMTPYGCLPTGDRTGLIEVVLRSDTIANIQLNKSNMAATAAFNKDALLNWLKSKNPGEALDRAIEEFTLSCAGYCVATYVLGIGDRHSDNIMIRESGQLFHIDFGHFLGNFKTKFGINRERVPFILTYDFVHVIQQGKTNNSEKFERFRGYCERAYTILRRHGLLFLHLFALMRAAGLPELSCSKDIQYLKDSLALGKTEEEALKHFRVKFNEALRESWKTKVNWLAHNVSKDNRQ
PI3Kδ, sequence (P27986 whole entry partner): as the sequence (P27986 whole entry partner) above

Row | IC50 [2] [µM] | IC50 [4] [µM] | IC50 [5] [µM] | IC50 [12] [µM] | Structure (SMILES) | IC50 [1] [µM] | IC50 [3] [µM] | IC50 [6] [µM] | IC50 [7] [µM] | IC50 [8] [µM] | IC50 [9] [µM] | IC50 [10] [µM] | IC50 [11] [µM]
1 | 0.183 | 0.01 | 0.273 | 0.012 | Oc1cccc(-c2nc(N3CCOCC3)c3ncc(Cl)cc3n2)c1 [Compound 6, 3-(7-Chloro-4-morpholinopyrido[3,2-d]pyrimidin-2-yl)phenol] | 4 | 9 | > 25 | 8 | > 25 | > 25 | > 25 | 0.8
2 | 0.249 | 0.011 | 0.428 | 0.109 | Oc1cccc(-c2nc(N3CCOCC3)c3ncc(CNC4CC4)cc3n2)c1 [Compound 27, 3-(7-((cyclopropylamino)methyl)-4-morpholinopyrido[3,2-d]pyrimidin-2-yl)phenolhydrochloride] | > 25 | 5 | > 25 | 3 | > 25 | 2 | > 25 | > 25
3 | 1.2 | 0.213 | 0.769 | 0.358 | Oc1cccc(-c2nc(N3CCOCC3)c3ncc(CNC4CCCCC4)cc3n2)c1 [Compound 28, 3-(7-((cyclohexylamino)methyl)-4-morpholinopyrido[3,2-d]pyrimidin-2-yl)phenol hydrochloride] | 20 | 20 | 25 | 10 | > 25 | 25 | > 25 | 15
4 | 2.2 | 0.157 | 0.244 | 0.391 | CN1CCN(Cc2cnc3c(N4CCOCC4)nc(-c4cccc(O)c4)nc3c2)CC1 [Compound 30, 3-(7-((4-methylpiperazin-1-yl)methyl)-4-morpholinopyrido[3,2-d]pyrimidin-2-yl)phenol hydrochloride] | 8 | 10 | 15 | 2 | 20 | 7 | > 25 | 5
5 | 0.055 | 0.022 | 0.043 | 0.01 | [N-]=[N+]=NCc1cnc2c(N3CCOCC3)nc(-c3cccc(O)c3)nc2c1 [Compound 39, 3-(7-(azidomethyl)-4-morpholinopyrido[3,2-d]pyrimidin-2-yl)phenol] | 4 | 5 | 3 | 2 | > 25 | 3 | > 25 | 4
6 | 5.2 | 3.9 | 5 | 0.546 | Oc1cccc(-c2nc(N3CCOCC3)nc3cc(Cl)cnc23)c1 [Compound 51, 3-(7-chloro-2-morpholinopyrido[3,2-d]pyrimidin-4-yl)phenol] | > 25 | > 25 | > 25 | 20 | > 25 | > 25 | > 25 | > 25
7 | – | – | – | 0.011 | Oc1cccc(-c2nc(N3CCOCC3)c3ncc(CN4CCN(C5CCCCC5)CC4)cc3n2)c1 [Compound 56, 3-{7-[(4-cyclohexylpiperazin-1-yl)methyl]-4-(morpholin-4-yl)pyrido[3,2-d]pyrimidin-2yl}phenol] | 8 | 7 | 11 | 6 | 12 | 8 | 10 | 6
8 | – | – | – | 0.003 | COCc1cn(Cc2cnc3c(N4CCOCC4)nc(-c4ccc(NC(=O)Nc5ccc(CO)cc5)cc4)nc3c2)nn1 [Compound 81, 1-[4-(hydroxymethyl)phenyl]-3-[4-(7-{[4-(methoxymethyl)-1H-1,2,3-triazol-1-yl]methyl}-4-(morpholin-4-yl)pyrido[3,2-d]pyrimidin-2-yl)phenyl]urea] | 0.3 | 0.1 | 0.3 | 2 | 0.5 | 0.1 | > 25 | 7

Row | Structure (SMILES) | IC50 [2] [µM] | IC50 [4] [µM] | IC50 [5] [µM] | IC50 [12] [µM] | IC50 [1] [µM] | IC50 [3] [µM] | IC50 [6] [µM] | IC50 [7] [µM] | IC50 [8] [µM] | IC50 [9] [µM] | IC50 [10] [µM] | IC50 [11] [µM]
9 | Oc1cccc(-c2nc(N3CCOCC3)c3ncc(CN4CCOCC4)cc3n2)c1 [Compound 29, 3-(4-morpholino-7-(morpholinomethyl)pyrido[3,2-d]pyrimidin-2-yl) phenol hydrochloride] | 0.286 | 0.041 | 1.3 | 0.043 | 8 | 5 | > 25 | 3 | > 25 | 2 | > 25 | > 25
